From ChEMBL document CHEMBL5365421, “Design, synthesis, antitumor activity, and molecular dynamics simulations of novel sphingosine kinase 2 inhibitors” (Bioorg Med Chem, 2023)

What was measured:
Sphingosine kinase 1 = Sphingosine kinase 1 (Homo sapiens, UniProt Q9NYA1); experiment: Inhibition of SphK1 (unknown origin) using D-Sph as substrate incubated for 40 mins by ADP-Glo Plus luminescence kinase assay
Sphingosine kinase 2 [1] = molecular target: T1, Sphingosine kinase 2 (Homo sapiens, UniProt Q9NRA0); experiment: Inhibition of SphK2 (unknown origin) using NBD-Sph as substrate by fluorescent plate reader analysis
T1 sequence (Q9NRA0 whole entry): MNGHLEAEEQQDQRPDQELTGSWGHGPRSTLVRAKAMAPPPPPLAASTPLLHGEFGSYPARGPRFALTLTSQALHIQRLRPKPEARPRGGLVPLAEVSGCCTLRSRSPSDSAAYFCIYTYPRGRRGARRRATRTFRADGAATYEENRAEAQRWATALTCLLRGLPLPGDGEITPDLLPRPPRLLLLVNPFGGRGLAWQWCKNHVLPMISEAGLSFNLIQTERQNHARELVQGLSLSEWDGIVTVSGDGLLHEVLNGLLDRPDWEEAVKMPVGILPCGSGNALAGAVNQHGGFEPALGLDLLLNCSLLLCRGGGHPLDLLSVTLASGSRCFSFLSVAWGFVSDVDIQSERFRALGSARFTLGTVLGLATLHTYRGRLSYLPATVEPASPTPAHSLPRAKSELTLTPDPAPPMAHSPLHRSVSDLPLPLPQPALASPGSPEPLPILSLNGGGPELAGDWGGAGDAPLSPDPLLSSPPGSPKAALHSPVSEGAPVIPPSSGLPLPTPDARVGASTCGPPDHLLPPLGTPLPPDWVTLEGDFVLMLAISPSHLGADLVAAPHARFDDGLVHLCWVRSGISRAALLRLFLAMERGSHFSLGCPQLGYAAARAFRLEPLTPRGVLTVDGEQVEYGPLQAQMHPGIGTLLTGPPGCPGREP

MCF7 [2] = experiment: Antiproliferative activity against human MCF7 cells assessed as cell growth inhibition measured after 48 hrs by MTT assay; format: functional, cell-based; settings: MCF7, 48 h
U-937 = experiment: Antiproliferative activity against human U-937 cells assessed as cell growth inhibition measured after 48 hrs by MTT assay; format: functional, cell-based; settings: U-937, 48 h
MGC-803 = experiment: Antiproliferative activity against human MGC-803 cells assessed as cell growth inhibition measured after 48 hrs by MTT assay; format: functional, cell-based; settings: MGC-803, 48 h
[3] = molecular target: T2, Sphingosine kinase 2 (Homo sapiens) (UniProt Q9NRA0); experiment: Inhibition of SphK2 (unknown origin) using NBD-Sph as substrate at 10 uM by fluorescent plate reader analysis relative to control
T2 sequence (whole entry): T1 sequence (Q9NRA0 whole entry)

MCF7 [4] = experiment: Inhibition of cell migration in human MCF7 cells assessed as reduction in scratch healing rate measured after 24 to 48 hrs by microscopic analysis; format: functional, cell-based; settings: dose 20-100 µM, time lower 24.0 hrs, time upper […]
Sphingosine kinase 2 [5] = molecular target: T1, Sphingosine kinase 2; experiment: Inhibition of recombinant SphK2 (unknown origin) using sphingosine as substrate assessed as inhibition constant by Lineweaver-burk plot analysis

Chain of Sphingosine kinase 1 (Q9NYA1 whole entry): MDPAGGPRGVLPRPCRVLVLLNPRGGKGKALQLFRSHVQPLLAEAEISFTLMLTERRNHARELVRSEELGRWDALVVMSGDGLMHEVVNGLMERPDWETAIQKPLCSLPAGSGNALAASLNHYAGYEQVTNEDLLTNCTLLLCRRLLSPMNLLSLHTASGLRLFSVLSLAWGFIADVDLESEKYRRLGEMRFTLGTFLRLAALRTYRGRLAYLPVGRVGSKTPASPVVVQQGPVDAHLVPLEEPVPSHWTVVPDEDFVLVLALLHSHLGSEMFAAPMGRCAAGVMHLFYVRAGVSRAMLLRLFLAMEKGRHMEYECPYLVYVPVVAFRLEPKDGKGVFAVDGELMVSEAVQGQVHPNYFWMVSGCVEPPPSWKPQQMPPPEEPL

IC50 (Sphingosine kinase 1) [µM]	IC50 (Sphingosine kinase 2 [1]) [µM]	IC50 (MCF7 [2]) [µM]	IC50 (U-937) [µM]	IC50 (MGC-803) [µM]	inhibition [3] [%]	Ki (Sphingosine kinase 2 [5]) [µM]	Structure (SMILES)	inhibition (MCF7 [4])
1.47	> 10	54	31.4	42	< 50		NCCNC(=O)c1ccc(OCc2noc(-c3ccc(Cl)cc3)n2)cc1	
66.2	> 10	> 100	> 100	38.6			NC(=O)[C@@H]1CCCN1C(=O)c1ccc(COc2cccc(OCc3ccccc3)c2)cc1	
21.9	0.0024	24.4	25.6	19.2			NC(=O)[C@H]1CCCN1C(=O)c1ccc(OCc2noc(-c3ccc(C(F)(F)F)cc3)n2)cc1	Dose-Dependent Effect
	0.0115	20.3	32.7	33.8			NC(=O)CNC(=O)c1ccc(COc2cccc(OCc3ccccc3)c2)cc1	
	> 10	> 100	31.2	40.6	< 50		NC(=O)[C@@H]1CCCN1C(=O)c1ccc(OCc2noc(-c3ccc(Cl)cc3)n2)cc1	
0.924	> 10	18.3	41.5	65.2			NC(=O)[C@H]1CCCN1Cc1ccc(COc2cccc(OCc3ccccc3)c2)cc1	
	0.0358	58	68.9	26.1			O=C(NCCO)c1ccc(OCc2noc(-c3ccc(C(F)(F)F)cc3)n2)cc1	
7.76	> 10	45.3	2.95	40.3	< 50		O=C(c1ccc(OCc2noc(-c3ccc(Cl)cc3)n2)cc1)N1CCC[C@@H]1CO	
	> 10	55.2	20.1	37	< 50		O=C(NCCO)c1ccc(OCc2noc(-c3ccc(Cl)cc3)n2)cc1	
	> 10	39.7	8.44	10.9			NC(=O)CNC(=O)c1ccc(OCc2noc(-c3ccc(C(F)(F)F)cc3)n2)cc1	
	4						CCCCCOc1ccc2cc(-c3noc([C@@H]4[C@@H](O)CCN4C(=N)N)n3)ccc2c1	
0.446	0.0115	> 100	> 80.2	15.7			OCC1CCCN1Cc1ccc(COc2cccc(OCc3ccccc3)c2)cc1 (single isomer, unassigned)	
						6.5	CCCCOc1ccc(CC/C=C2\SC(=O)N(CCN)C2=O)cc1	
	> 10	39.6	32.9	40.8			NCCNC(=O)c1ccc(OCc2noc(-c3ccc(C(F)(F)F)cc3)n2)cc1	
	> 10	55.4	10	29.8	< 50		NC(=O)CNC(=O)c1ccc(OCc2noc(-c3ccc(Cl)cc3)n2)cc1	
	0.96	> 100	45.6	> 81.5			NC(=O)[C@H]1CCCN1C(=O)c1ccc(COc2cccc(OCc3ccccc3)c2)cc1	
17.7	0.00343	21.1	51.1	35.9			O=C(c1ccc(OCc2noc(-c3ccc(C(F)(F)F)cc3)n2)cc1)N1CCC[C@@H]1CO	Dose-Dependent Effect
	0.0416	53.5	51.4	25.1			NCCNC(=O)c1ccc(COc2cccc(OCc3ccccc3)c2)cc1	
	1.23	30.5	69.5	61.8			O=C(c1ccc(COc2cccc(OCc3ccccc3)c2)cc1)N1CCC[C@@H]1CO	
	> 10	21.5	43.3	63.6			NC(=O)[C@@H]1CCCN1Cc1ccc(COc2cccc(OCc3ccccc3)c2)cc1	
0.917	0.00191	> 100	37.6	32.2			OC[C@@H]1CCCN1Cc1ccc(COc2cccc(OCc3ccccc3)c2)cc1	
8.96	> 10	8.61	17.3	22.9	< 50		O=C(c1ccc(OCc2noc(-c3ccc(Cl)cc3)n2)cc1)N1CCC[C@H]1CO	
	> 10	> 100	29.9	> 79.8	< 50		O=C(c1ccc(COc2cccc(OCc3ccccc3)c2)cc1)N1CCC[C@H]1CO	
	> 10	12.8	25.6	22.9			NC(=O)[C@@H]1CCCN1C(=O)c1ccc(OCc2noc(-c3ccc(C(F)(F)F)cc3)n2)cc1	
	2.46	51.9	29.4	43			O=C(c1ccc(OCc2noc(-c3ccc(C(F)(F)F)cc3)n2)cc1)N1CCC[C@H]1CO	
35.6	1.25	34.7	34.7	37.7			O=C(NCCO)c1ccc(COc2cccc(OCc3ccccc3)c2)cc1	
30.4	0.0462	42.7	> 82.3	55.3			NC(=O)CNCc1ccc(COc2cccc(OCc3ccccc3)c2)cc1	
	> 10	7.63	47.8	20.2	< 50		NC(=O)[C@H]1CCCN1C(=O)c1ccc(OCc2noc(-c3ccc(Cl)cc3)n2)cc1	
